Results: PMC10626578, “Designed switch from covalent to non-covalent inhibitors of carboxylesterase Notum activity” (European Journal of Medicinal Chemistry, 2023)
≈ marks a conversion by molar mass, not a printed value. Where “and” joins values, the source holds several entries; their conditions need not be identical. Equal values may be shown once. Read-outs that look alike come from different tables or passages of the source.

How the values were obtained:
[1] = Aqueous solubility in PBS (pH 7.4); type: physicochemical
Experimental: (§1) Selected compounds were routinely screened for aqueous solubility in PBS (pH 7.4), transit performance in MDCK-MDR1 cell lines for permeability, and metabolic stability in MLM and HLM as a measure of clearance. The main metabolites and routes of metabolism of 4y were determined in MLM. Assay protocols and additional data are presented in the Supplementary Material (Tables S1–S7). ADME studies reported in this work were performed by WuXi AppTec (Shanghai, China).
(§2) Representative assay protocols have been described in detail. ^1,2

[2] = Stability in mouse liver microsomes; type: in vitro ADME
Experimental: as §1, §2

[3] = tested on: MDR1; assay: Permeability using MDR1-MDCKII cell monolayer; type: in vitro ADME; settings: dog
Experimental: as §1, §2

[4] = Permeability using MDR1-MDCKII cell monolayer; type: in vitro ADME; settings: dog, MDCK-MDR1, Table S3, mean n=2
Experimental: as §1, §2

[5] = tested on: MDR1-MDCKII cell monolayer; assay: Permeability using MDR1-MDCKII cell monolayer; type: in vitro ADME; settings: Table 3; efflux ratio
Experimental: as §1, §2

[6] = biological target: T1, Notum (core, 81–451C330S) (Homo sapiens, UniProt Q6P988, C330S); assay: Notum-OPTS biochemical assay, Notum (81–451C330S)
T1 construct: high-throughput biochemical assay with Notum (81–451C330S) and OPTS as a synthetic fluorescent substrate; made in house
T1 sequence (Q6P988 81-451 C330S): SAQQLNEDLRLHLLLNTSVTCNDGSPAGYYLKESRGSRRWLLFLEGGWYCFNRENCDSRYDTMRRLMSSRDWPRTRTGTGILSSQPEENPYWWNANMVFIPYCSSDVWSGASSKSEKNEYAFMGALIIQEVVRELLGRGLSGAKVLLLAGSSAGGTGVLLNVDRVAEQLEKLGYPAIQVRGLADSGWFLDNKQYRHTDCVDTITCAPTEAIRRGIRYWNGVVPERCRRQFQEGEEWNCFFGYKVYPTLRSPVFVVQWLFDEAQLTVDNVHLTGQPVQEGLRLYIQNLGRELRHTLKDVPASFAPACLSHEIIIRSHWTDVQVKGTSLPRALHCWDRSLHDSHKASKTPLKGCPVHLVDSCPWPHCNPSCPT
Experimental: Notum inhibitors 3–5 (Table 1, Table 2, Table 3, Table 4) were either purchased or prepared using established synthetic methods from readily available starting materials (Scheme 1). Where necessary, the synthesis of many of these amines (e.g. 6) have been reported previously and full details of their preparation have been included in the Experimental Section. Notum inhibition activity was determined using the standard Notum-OPTS biochemical assay using IC50 values. These values were used to compare relative activities with covalent inhibitors under carefully regulated assay conditions. […] Selected inhibitors were screened for inhibition of Notum activity in a TCF/LEF Reporter (Luciferase) cell line with exogenous WNT3a and Notum, and soaked into Notum crystals to determine their binding modes and evidence of MoA.
(§3) Methods have been described in detail.

[7] = tested on: TCF/LEF Reporter (Luciferase) cell line; assay: TCF/LEF reporter (Luciferase) assay with WNT3A in the absence of Notum; type: cell-based; settings: up to 10 μM
Experimental: (§4) Early leads 4v, 4w and 4y were then evaluated in additional pharmacology and ADME screens (Table 3). […] Screening 4w and 4y in the biochemical assay using full length Notum and OPTS confirmed potent inhibition of Notum activity.
Figure S4D. Notum TCF/LEF reporter (Luciferase) data with WNT3A (200 ng/mL) in the absence of Notum. Representative response-concentration curves are for 4w (2 of 6 shown) from a larger data set for compounds 3-5. Examples are from different screening runs.

[8] = Stability in human liver microsomes; type: in vitro ADME
Experimental: as §1, §2

[9] = biological target: T2, Notum (full length) (Homo sapiens, UniProt Q6P988); assay: Notum-OPTS biochemical assay, full length Notum
T2 construct: Screening 4w and 4y in the biochemical assay using full length Notum and OPTS
T2 sequence (Q6P988 20-496): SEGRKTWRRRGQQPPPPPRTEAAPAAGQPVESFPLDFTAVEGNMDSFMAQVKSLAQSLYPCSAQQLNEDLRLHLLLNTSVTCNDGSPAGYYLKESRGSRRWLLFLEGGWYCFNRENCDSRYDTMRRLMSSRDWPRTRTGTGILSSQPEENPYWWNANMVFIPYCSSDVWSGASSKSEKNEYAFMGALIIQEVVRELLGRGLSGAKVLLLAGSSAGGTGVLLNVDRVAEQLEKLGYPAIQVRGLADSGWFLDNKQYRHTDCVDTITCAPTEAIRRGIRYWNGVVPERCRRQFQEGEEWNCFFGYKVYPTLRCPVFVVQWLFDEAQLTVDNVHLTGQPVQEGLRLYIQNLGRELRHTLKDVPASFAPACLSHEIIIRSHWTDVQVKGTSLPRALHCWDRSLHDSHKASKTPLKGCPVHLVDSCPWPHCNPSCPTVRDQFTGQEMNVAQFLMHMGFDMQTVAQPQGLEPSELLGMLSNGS
Experimental: as §4, §3

[10] = Stability in mouse plasma; type: in vitro ADME
Excerpt: as §2

[11] = Distribution coefficient LogD7.4, shake flask method; type: physicochemical; settings: pH 7.4; Table 3
Experimental: Molecular properties (MW, clogP) were calculated with ChemDraw Professional v16.0.1.4(77). Distribution coefficients (LogD7.4) were measured using the shake flask method.
Representative assay protocols have been described in detail.^1,^2

[12] = biological target: T3, Notum (Homo sapiens, UniProt Q6P988); assay: TCF/LEF Reporter (Luciferase) cell line with exogenous WNT3a and Notum; type: cell-based
T3 construct: host or cells: TCF/LEF Reporter (Luciferase) cell line; Notum added exogenously
T3 sequence (Q6P988 20-496): T2 sequence (Q6P988 20-496)
Experimental: Notum inhibitors 3–5 (Table 1, Table 2, Table 3, Table 4) were either purchased or prepared using established synthetic methods from readily available starting materials (Scheme 1). Where necessary, the synthesis of many of these amines (e.g. 6) have been reported previously and full details of their preparation have been included in the Experimental Section. Notum inhibition activity was determined using the standard Notum-OPTS biochemical assay using IC50 values. These values were used to compare relative activities with covalent inhibitors under carefully regulated assay conditions. Confirmed inhibitors were routinely screened in in vitro ADME assays. Selected inhibitors were screened for inhibition of Notum activity in a TCF/LEF Reporter (Luciferase) cell line with exogenous WNT3a and Notum, and soaked into Notum crystals to determine their binding modes and evidence of MoA. […]
as §3

CC(=O)N1CCc2c1ccc(Cl)c2Cl [Compound 4w, 1-(4,5-Dichloroindolin-1-yl)ethan-1-one]
solubility thermodynamic ([1]; PBS, Table S2, pH 7.4, n = 2, * below lower limit of quantification, read-out: Thermodynamic Solubility @ RT): < 0.36 µg/mL
solubility ([1]; Table 3, PBS pH 7.4): 0.4 µg/mL (≈ 1.74 µM)
MLM Stability Cli [2]: 1150 µL/min/mg protein
microsomal CLint at 1 h ([2]; Table 3, read-out: MLM Clint): 1200 µL/min/mg
half-life ([2]; mouse, read-out: MLM Stability t1/2): 1.2 min
Papp ([3]; MDCK-MDR1, Table 3, apical to basal, read-out: MDCK-MDR1 AB Papp): 35 ×10⁻⁶ cm/s
Papp ([3]; MDCK-MDR1, Table 3, basal to apical, read-out: MDCK-MDR1 BA Papp): 21 ×10⁻⁶ cm/s
efflux ratio ([3]; MDCK-MDR1, Table S3, mean n=2): 0.59
Papp ([3]; MDCK-MDR1, Table S3, mean n=2, read-out: Apical to Basal Papp): 35.5 ×10⁻⁶ cm/s
Papp ([3]; MDCK-MDR1, Table S3, mean n=2, read-out: Basal to Apical Papp): 21.1 ×10⁻⁶ cm/s
recovery ([4]; read-out: A to B % Recovery): 75%
recovery ([4]; read-out: B to A % Recovery): 81%
MDCK-MDR1 ER [5]: 0.60
IC50 ([6]; Figure S4A, Notum (81-451 C330S) OPTS, 4 of 11 curves shown, read-out: IC50, single concentration-response curve): 2.8 nM and 3.7 nM and 2.3 nM and 3.1 nM
IC50 ([6]; Notum (core, 81–451C330S), read-out: OPTS, IC50): 2.5 ± 0.6 nM
IC50 ([6]; Table 2, mean ± s.d. of n = 4–12, >10 = 20–50% inhibition @ 10 μM, read-out: Notum IC50): 2.5 ± 0.6 nM
LE ([6]; ligand efficiency from Notum OPTS IC50): 0.85
LLE ([6]; lipophilic ligand efficiency from Notum OPTS IC50 and clogP): 5.9
assay interference or cell toxicity in the absence of Notum [7]: not by assay interference or cell toxicity
HLM Stability Cli [8]: 138 µL/min/mg protein
microsomal CLint at 1 h ([8]; Table 3, read-out: HLM Clint): 140 µL/min/mg
half-life ([8]; human, read-out: HLM Stability t1/2): 10 min
IC50 ([9]; Figure S4B, Notum (full length) OPTS, 3 of 3 curves shown, read-out: IC50, single concentration-response curve): 5.3 nM and 4.1 nM and 5.4 nM
IC50 ([9]; Notum (full length), read-out: OPTS, IC50): 4.9 ± 0.6 nM
half-life ([10]; Table S5, read-out: Mouse plasma Stability t1/2): > 280 min
half-life ([10]; read-out: mouse plasma stability t½): > 240 min
logD [11]: 3.1
EC50 ([12]; Figure S4C, WNT3A (200 ng/mL), 6 of 6 curves shown, read-out: EC50, single concentration-response curve): 5.5 nM and 4.3 nM and 15.2 nM and 39 nM and 29.1 nM and 36.8 nM
EC50 ([12]; Notum (core, 81–451C330S), restoration of Wnt signalling, read-out: TCF-LEF, EC50): 22 ± 14 nM
restoration of Wnt signalling in the presence of Notum ([12]; concentration-response curves up to 10 μM): restored Wnt signalling
